Results as given in patent publication US4877876A, “Novel indenothiazole derivative and process for preparing the same” (Hisamitsu Pharmaceutical Co., Inc., priority 1986, dated 1989).
Counter-ions that a name gives are not always drawn.

What follows are compounds tested on Wistar-strained male rats (assay: Pharmacological test: ulcer inhibition against ethanol-induced ulcer in rats). Details: test compounds 50 mg/kg orally, one hour before 1 ml pure ethanol orally; compared with 0.5% tragacanth control.
Assay type: in vivo
Procedure: Groups each consisting of 9 to 10 Wistar-strained male rats, each weighing about 200 g, were used in the test after their abstinence from food and water for 24 hours. Each test compound of this invention was administered in an amount of 50 mg/kg and a comparative medicine, "Neuer" (tradename: produced by Daiichi Pharmaceutical Co., Ltd.; effective component: centraxate) in an amount of 300 mg/kg. Each of the test compounds was administered orally to each rat of a first group and the comparative medicine to each rat of a second group one hour before oral administration of 1 ml of pure ethanol per rat. One hour later, each rat was sacrificed by exsanguination and its stomach was enucleated and fixed with 10 ml of 70% ethanol for about 30 minutes. A 0.5% tragacanth solution was administered to each rat of a third group. The ulcer was measured for length with naked eyes, and the test groups of rats were measured for their respective ulcer inhibition ratios in comparison with that for the third group.
Both the test compounds and the comparative medicine were each suspended or dissolved in a 0.5% tragacanth gum saline solution for use in the test. […] [formula]

SMILES | Ulcer inhibition ratio [%]
Fc1ccc2c(c1)CC1SC(=NCCCN3CCOCC3)N=C21 (stereo not drawn) [Example 2] | 93.5
c1ccc2c(c1)Cc1sc(NCCCCN3CCOCC3)nc1-2 [Example 92] | 83.4
Fc1ccc2c(c1)Cc1sc(NCCCN3CCOCC3)nc1-2 [Example 1 (dihydrochloride), 2-(3-morpholinopropyl)amino-6-fluoro-8H-indeno[1.2-d]thiazole] | 94.1
CC1c2sc(NCCCN3CCOCC3)nc2-c2cccc(Cl)c21 (stereo not drawn) [Example 83 (dihydrochloride)] | 85.9
Fc1ccc2c(c1)Cc1sc(NCCCN3CCOCC3)nc1-2 [Example 1, 2-(3-morpholinopropyl)amino-6-fluoro-8H-indeno[1.2-d]thiazole] | 89.0
Clc1ccc2c(c1)-c1nc(NCCN3CCOCC3)sc1C2 [Example 59] | 85.0
Fc1ccc2c(c1)Cc1sc(NCCCN3CCOCC3)nc1-2 [Example 1 (maleic acid salt), 2-(3-morpholinopropyl)amino-6-fluoro-8H-indeno[1.2-d]thiazole] | 89.5
c1ccc2c(c1)Cc1sc(NCCCN3CCOCC3)nc1-2 [Example 61] | 90.0
CC(C)CNc1nc2c(s1)Cc1ccccc1-2 [Example 7] | 79.0
